Measurements from PubChem BioAssay AID1259411 (Chemical Carcinogenesis Research Information System (CCRIS), 2018).
Active and inactive are the calls of the source. No rule for the calls is given here.

Test system: rodent carcinogenicity bioassays, tumor incidence
Experiment: CCRIS carcinogenicity studies
Method in brief: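 NCI-built, expert-reviewed records of carcinogenicity and related test outcomes (mutagenicity, tumor promotion/inhibition) compiled from published and report sources, historical span 1985-2011, not updated.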

SMILES: CCCCC(CC)COP(=O)(OCC(CC)CCCC)OCC(CC)CCCC (configuration not stated)
- carcinogen call (Species: MOUSE, Strain/Sex: B6C3F1/FEMALE, Route: GAVAGE, Dose: 0, 500, 1000 MG/KG IN CORN OIL 1/D 5 D/WK FOR 102-104 WK (STUDY DURATION: 102-104 WK), Dose: 0, 500, 1000 MG/KG IN CORN OIL 1/D 5 D/WK FOR 102-104 WK (STUDY DURATION: 102-104 WK), Tumor Site: Type of Lesion: LIVER: CARCINOMA, CARCINOMA OR ADENOMA): active; positive
- carcinogen call (Species: MOUSE, Strain/Sex: B6C3F1/FEMALE, Route: GAVAGE, Dose: 0, 500, 1000 MG/KG IN CORN OIL 5/WK FOR 103 WK (STUDY DURATION: 104 WK), Dose: 0, 500, 1000 MG/KG IN CORN OIL 5/WK FOR 103 WK (STUDY DURATION: 104 WK), Tumor Site: Type of Lesion: LIVER: ADENOMA, CARCINOMA): active; positive
- carcinogen call (Species: MOUSE, Strain/Sex: B6C3F1/MALE, Route: GAVAGE, Dose: 0, 500, 1000 MG/KG IN CORN OIL 1/D 5 D/WK FOR 102-104 WK (STUDY DURATION: 102-104 WK), Dose: 0, 500, 1000 MG/KG IN CORN OIL 1/D 5 D/WK FOR 102-104 WK (STUDY DURATION: 102-104 WK)): inactive; negative
- carcinogen call (Species: MOUSE, Strain/Sex: B6C3F1/MALE, Route: GAVAGE, Dose: 0, 500, 1000 MG/KG IN CORN OIL 5/WK FOR 103 WK (STUDY DURATION: 104 WK), Dose: 0, 500, 1000 MG/KG IN CORN OIL 5/WK FOR 103 WK (STUDY DURATION: 104 WK)): inactive; negative
- carcinogen call (Species: RAT, Strain/Sex: F344/FEMALE, Route: GAVAGE, Dose: 0, 1000, 2000 MG/KG IN CORN OIL 5/WK FOR 103 WK (STUDY DURATION: 103 WK), Dose: 0, 1000, 2000 MG/KG IN CORN OIL 5/WK FOR 103 WK (STUDY DURATION: 103 WK)): inactive; negative
- carcinogen call (Species: RAT, Strain/Sex: F344/FEMALE, Route: GAVAGE, Dose: 0, 1000, 2000 MG/KG IN CORN OIL 5 D/WK FOR 102-104 WK (STUDY DURATION: 102-104 WK), Dose: 0, 1000, 2000 MG/KG IN CORN OIL 5 D/WK FOR 102-104 WK (STUDY DURATION: 102-104 WK)): inactive; negative
- carcinogen call (Species: RAT, Strain/Sex: F344/MALE, Route: GAVAGE, Dose: 0, 2000, 4000 MG/KG IN CORN OIL 5/WK FOR 103 WK (STUDY DURATION: 104 WK), Dose: 0, 2000, 4000 MG/KG IN CORN OIL 5/WK FOR 103 WK (STUDY DURATION: 104 WK), Tumor Site: Type of Lesion: ADRENAL GLAND: PHEOCHROMOCYTOMA): equivocal
- carcinogen call (Species: RAT, Strain/Sex: F344/MALE, Route: GAVAGE, Dose: 0, 2000, 4000 MG/KG IN CORN OIL 5 D/WK FOR 102-104 WK (STUDY DURATION: 102-104 WK), Dose: 0, 2000, 4000 MG/KG IN CORN OIL 5 D/WK FOR 102-104 WK (STUDY DURATION: 102-104 WK)): inactive; negative

SMILES: CCCc1cc(=O)[nH]c(=S)[nH]1
- carcinogen call (Species: HAMSTER, Route: ORAL, Tumor Site: Type of Lesion: THYROID GLAND): active; positive
- carcinogen call (Species: MOUSE, Route: ORAL, Tumor Site: Type of Lesion: PITUITARY GLAND, THYROID GLAND): active; positive
- carcinogen call (Species: RAT, Route: ORAL, Tumor Site: Type of Lesion: THYROID GLAND): active; positive

SMILES: CCCCOC(=O)c1ccc(O)cc1
- carcinogen call (Species: MOUSE, Strain/Sex: ICR/FEMALE, Route: ORAL, Dose: 0, 0.15, 0.3, 0.6% IN DIET FOR 102 WK (STUDY DURATION: 106 WK), Dose: 0, 0.15, 0.3, 0.6% IN DIET FOR 102 WK (STUDY DURATION: 106 WK)): inactive; negative
- carcinogen call (Species: MOUSE, Strain/Sex: ICR/MALE, Route: ORAL, Dose: 0, O.15, 0.3, 0.6% IN DIET FOR 102 WK (STUDY DURATION: 106 WK), Dose: 0, O.15, 0.3, 0.6% IN DIET FOR 102 WK (STUDY DURATION: 106 WK)): inactive; negative

SMILES: C[C@H](CCC(=O)N(CCS(=O)(=O)O)N=O)[C@H]1CCC2C3C(C[C@H](O)[C@@]21C)[C@@]1(C)CC[C@@H](O)C[C@H]1C[C@H]3O (some centres not stated)
- carcinogen call (Species: RAT, Strain/Sex: F344/MALE, Route: GAVAGE, Dose: 0, 10 MG IN 50 µL DMSO 5 D/WK FOR 6 WK (STUDY DURATION: 108 WK), Tumor Site: Type of Lesion: LIVER: CARCINOMA): active; positive

SMILES: S=C=NCCc1ccccc1
- carcinogen call (Species: RAT, Strain/Sex: F344/MALE, Route: DIET (ORAL), Dose: 0.1% FOR 12 WK (STUDY DURATION: 48 WK)): inactive; negative (bladder hyperplasias observed)
- carcinogen call (Species: RAT, Strain/Sex: F344/MALE, Route: DIET (ORAL), Dose: 0.1% FOR 24 WK (STUDY DURATION: 48 WK)): inactive; negative (bladder hyperplasias observed)
- carcinogen call (Species: RAT, Strain/Sex: F344/MALE, Route: DIET (ORAL), Dose: 0.1% FOR 48 WK (STUDY DURATION: 48 WK)): inactive; negative (bladder hyperplasias and dysplasias observed)
- carcinogen call (Species: RAT, Strain/Sex: F344/MALE, Route: ORAL, Dose: 0.1% IN DIET FOR 32 WK, THEN SWITCHED TO BASAL DIET FOR 16 WK (STUDY DURATION: 48 WK), Tumor Site: Type of Lesion: URINARY BLADDER: CARCINOMA): active; positive
- carcinogen call (Species: RAT, Strain/Sex: F344/MALE, Route: ORAL, Dose: 0.1% IN DIET FOR 48 WK (STUDY DURATION: 48 WK), Tumor Site: Type of Lesion: URINARY BLADDER: CARCINOMA): active; positive

SMILES: [O]=[Cr](=[O])([OH])[O][Cr](=[O])(=[O])[OH]
- carcinogen call (Species: Mouse, Strain/Sex: B6C3F1/Female, Route: Oral, Dose: 0, 14.3, 57.3, 172, 516 mg/l of water, in drinking water for 2 yr (average daily dose of 0, 1.1, 3.9, 9, and 25 mg/kg), Tumor Site: Type of Lesion: Small intestine (duodenum, jejunum, ileum): Adenomas and carcinomas): active; positive, authors describe as clear evidence of carcinogenic activity
- carcinogen call (Species: Mouse, Strain/Sex: B6C3F1/Male, Route: Oral, Dose: 0, 14.3, 28.6, 85.7, 257.4 mg/l of water, in drinking water for 2 yr (average daily dose of 0, 1.1, 2.6, 7, and 17 mg/kg, Tumor Site: Type of Lesion: Small intestine (duodenum, jejunum, ileum): Adenomas and carcinomas): active; positive, authors describe as clear evidence of carcinogenic activity
- carcinogen call (Species: Rat, Strain/Sex: F344/N/Female, Route: Oral, Dose: 0, 14.3, 57.3, 172, 516 mg/l of water, in drinking water for 2 yr (average daily dose of 0, 0.7, 2.7, 7, and 20 mg/kg), Tumor Site: Type of Lesion: Mouth and tongue: Squamous cell papilloma and carcinoma): active; positive, authors describe as clear evidence of carcinogenic activity
- carcinogen call (Species: Rat, Strain/Sex: F344/N/Male, Route: Oral, Dose: 0, 14.3, 57.3, 172, 516 mg/l of water, in drinking water for 2 yr (average daily dose of 0, 0.6, 2.2, 6, and 17 mg/kg), Tumor Site: Type of Lesion: Mouth and tongue: Squamous cell papilloma and carcinoma): active; positive, authors describe as clear evidence of carcinogenic activity

SMILES: C[C@@H]1C[C@H](C)CN(S(=O)(=O)c2ccc(Cl)c(C(=O)O)c2)C1
- carcinogen call (Species: RAT, Strain/Sex: F344/MALE, Route: ORAL, Dose: 0.2% IN DIET FOR 7.5 MO, THEN 0.1% FOR 4 MO, THEN 0.05% FOR 4 MO, Tumor Site: Type of Lesion: LIVER: HEPATOCELLULAR CARCINOMA): active; positive

SMILES: O[C@@H]1[C@@H](O)[C@@H]2OC[C@@H](O2)[C@H]1O
- carcinogen call (Species: MOUSE, Strain/Sex: CD-1/FEMALE, Route: DERMAL, Dose: 0, 20 UMOL/0.1 ML DMSO 2/WK FOR 5 WK FOLLOWED 1 WK LATER BY 0.1 ML ACETONE 2/WK FOR 47 WK (STUDY DURATION: 52 WK)): inactive; negative

SMILES: NC1=NCN([C@@H]2O[C@H](CO)[C@@H](O)[C@H]2O)C(=O)N1
- carcinogen call (Species: RAT, Strain/Sex: F344/MALE, Route: INTRAPERITONEAL, Dose: 0, 50 MG/KG IN 0.9% SALINE 3/WK FOR 1 YR (STUDY DURATION: 1 YR)): inactive; negative

SMILES: C1OC1C1CO1 (configuration not stated)
- carcinogen call (Species: MOUSE, Route: DERMAL, Tumor Site: Type of Lesion: INTEGUMENTARY SYSTEM (SKIN)): active; positive
- carcinogen call (Species: MOUSE, Route: INTRAPERITONEAL, Tumor Site: Type of Lesion: LUNG): active; positive
- carcinogen call (Species: MOUSE, Route: SUBCUTANEOUS, Tumor Site: Type of Lesion: INJECTION SITE): active; positive
- carcinogen call (Species: MOUSE, Strain/Sex: B6C3F1/FEMALE, Route: INHALATION, Dose: 0, 2.5, 5.0 PPM 6 HR/D 5 D/WK FOR 6 WK (STUDY DURATION: 18 MONTHS), Dose: 0, 2.5, 5.0 PPM 6 HR/D 5 D/WK FOR 6 WK (STUDY DURATION: 18 MONTHS), Tumor Site: Type of Lesion: HARDERIAN GLAND: TUMOR): active; positive
- carcinogen call (Species: RAT, Route: SUBCUTANEOUS, Tumor Site: Type of Lesion: INJECTION SITE): active; positive
- carcinogen call (Species: RAT, Strain/Sex: SPRAGUE-DAWLEY/FEMALE, Route: INHALATION, Dose: 0, 2.5, 5.0 PPM 6 HR/D 5 D/WK FOR 6 WK (STUDY DURATION: 18 MONTHS), Dose: 0, 2.5, 5.0 PPM 6 HR/D 5 D/WK FOR 6 WK (STUDY DURATION: 18 MONTHS), Tumor Site: Type of Lesion: NASAL MUCOSA: TUMOR): active; positive
